Molecules are shown by their SMILES.

In assay [1] the target is Isocitrate dehydrogenase [NADP] cytoplasmic (Homo sapiens) (UniProt O75874). The assay is described as follows: Inhibition of human IDH1 expressed in IPTG-induced Escherichia coli BL21 cells assessed as reduction of NADP+ to NADPH after 5 mins by spectrophotometry. More on the design: concentration or dose not given beside the values.
Assay [2] deals with Isocitrate dehydrogenase [NADP] cytoplasmic (Homo sapiens), O75874 [R132H]. The assay is described as follows: Inhibition of human IDH1 R132H mutant expressed in IPTG-induced Escherichia coli BL21 cells assessed as oxidation of NADPH to NADP+ after 5 mins by spectrophotometry. More on the design: concentration or dose not given beside the values.
Sequence of Isocitrate dehydrogenase [NADP] cytoplasmic (Homo sapiens), O75874 [R132H] (O75874 whole entry R132H): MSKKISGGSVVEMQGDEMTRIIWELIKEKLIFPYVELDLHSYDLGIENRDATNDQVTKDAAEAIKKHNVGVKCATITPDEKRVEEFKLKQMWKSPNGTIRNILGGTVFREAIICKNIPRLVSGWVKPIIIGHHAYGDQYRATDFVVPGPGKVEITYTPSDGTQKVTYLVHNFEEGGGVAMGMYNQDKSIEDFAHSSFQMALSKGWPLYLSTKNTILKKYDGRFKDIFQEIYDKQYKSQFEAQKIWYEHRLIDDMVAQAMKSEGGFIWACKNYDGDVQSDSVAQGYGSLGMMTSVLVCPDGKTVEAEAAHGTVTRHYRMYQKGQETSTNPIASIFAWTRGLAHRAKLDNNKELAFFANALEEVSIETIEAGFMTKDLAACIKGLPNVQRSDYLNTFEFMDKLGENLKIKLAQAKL

Sequence of Isocitrate dehydrogenase [NADP] cytoplasmic (Homo sapiens) (O75874 whole entry): as the sequence (O75874 whole entry R132H) above, with H132R counted along it

In the case of `COc1ccc(/C=C/C(=O)O[C@H]2[C@@H]3C=CO[C@@H](O[C@@H]4O[C@H](CO)[C@@H](O)[C@H](O)[C@H]4O)[C@@H]3[C@@]3(CO)O[C@@H]23)cc1O`, the Activity in assay [1] was determined as 107%; in assay [2], 108%.
Taken in the same sequence, the figures for `CC(C)=CCC[C@](C)(O[C@@H]1O[C@H](CO[C@@H]2O[C@H](CO)[C@@H](O)[C@H](O)[C@H]2O)[C@@H](O)[C@H](O)[C@H]1O)[C@H]1CC[C@]2(C)[C@@H]1[C@H](O)C[C@@H]1[C@@]3(C)CC[C@H](O[C@@H]4O[C@H](CO)[C@@H](O)[C@H](O)[C@H]4O)C(C)(C)[C@@H]3CC[C@]12C` were 122% and 102%.
Taken in the same sequence, the figures for `C[C@H]1C(=O)CC[C@@H]2[C@]1(C)CC[C@H]1[C@@]2(C)CC[C@@]2(C)[C@@H]3CC(C)(C)CC[C@]3(C)CC[C@]12C` were 104% and 108%.
Take `C[C@H]1[C@H](C)CC[C@]2(C)CC[C@]3(C)C(=CC[C@@H]4[C@@]5(C)CC[C@H](O)C(C)(C)[C@@H]5CC[C@]43C)[C@H]12`: the Activity in assay [1] came out at 105%; in assay [2], 112%.
Taken in the same sequence, the figures for `O=c1c(O)c(-c2cc(O)c(O)c(O)c2)oc2cc(O)cc(O)c12` were 95.5% and 93.2%.
On to `CC[C@H](/C=C/[C@@H](C)[C@H]1CC[C@H]2[C@@H]3CC=C4C[C@@H](O)CC[C@]4(C)[C@H]3CC[C@]12C)C(C)C`, for which the figures for the Activity in assay [1] and in assay [2] were 111% and 101%, respectively.
On to `COc1ccc(-c2cc(=O)c3c(O)cc(O[C@@H]4O[C@H](COC5OC[C@@H](O)[C@H](O)[C@H]5O)[C@@H](O)[C@H](O)[C@H]4O)cc3o2)cc1O` (some centres not stated), for which the Activity is 104% in assay [1] and 116% in assay [2].
On the same counts, the results for `COc1ccc(C(=O)O[C@H]2[C@@H]3C=CO[C@@H](O[C@@H]4O[C@H](CO)[C@@H](O)[C@H](O)[C@H]4O)[C@@H]3[C@@]3(CO)O[C@@H]23)cc1O` are 102% and 103%.
On the same counts, the results for `C/C=C(/C)C(=O)O[C@H]1Cc2c(cc3oc(C)cc(=O)c3c2O)OC1(C)C` are 97.8% and 105%.
As for `CC(C)CCC[C@@H](C)[C@H]1CC[C@H]2[C@@H]3CC=C4C[C@@H](O)CC[C@]4(C)[C@H]3CC[C@]12C`, the Activity in assay [1] came out at 105%; in assay [2] it was 96.3%.
Consider `CC(C)=CCC[C@](C)(O[C@@H]1O[C@H](CO[C@@H]2O[C@H](CO)[C@@H](O)[C@H](O)[C@H]2O)[C@@H](O)[C@H](O)[C@H]1O)[C@H]1CC[C@]2(C)[C@@H]1[C@H](O)C[C@@H]1[C@@]3(C)CC[C@H](O[C@@H]4O[C@H](CO)[C@@H](O)[C@H](O)[C@H]4O[C@@H]4O[C@H](CO)[C@@H](O)[C@H](O)[C@H]4O)C(C)(C)[C@@H]3CC[C@]12C`, for which the Activity in assay [1] was determined as 117%; in assay [2], 105%.
On the same counts, the results for `O=C(/C=C/c1ccc(O)cc1)c1ccc(O)cc1O` are 94.6% and 98.1%.
Consider `O=C(/C=C/c1ccccc1)NCCCCNC(=O)c1ccc(O)cc1`, for which the Activity worked out at 100% in assay [1] and 106% in assay [2].
Taken in the same sequence, the figures for `O=C1C[C@@H](c2ccc(O)cc2)Oc2cc(O)cc(O)c21` were 102% and 109%.
Take `COc1c2c(cc3oc(CO[C@@H]4O[C@H](CO)[C@@H](O)[C@H](O)[C@H]4O)cc(=O)c13)O[C@H](C(C)(C)O)C2`: the Activity was determined as 96.8% in assay [1] and 112% in assay [2].
On the same counts, the results for `CC(C)=CCc1c(O)c(CC=C(C)C)c2oc3c(O)ccc(O)c3c(=O)c2c1O` are 89.9% and 93.9%.
Regarding `CCCCCCCCCCCCC/C=C1/C(=O)O[C@H](C)[C@@H]1O`, the results for the Activity in assay [1] and in assay [2] were 111% and 114%, respectively.
Taken in the same sequence, the figures for `O=c1cc(-c2ccccc2)oc2cc(O)cc(O)c12` were 97.6% and 96.7%.
Taken in the same sequence, the figures for `CC[C@H](CC[C@@H](C)[C@H]1CC[C@H]2[C@@H]3CC=C4C[C@@H](O[C@@H]5O[C@H](CO)[C@@H](O)[C@H](O)[C@H]5O)CC[C@]4(C)[C@H]3CC[C@]12C)C(C)C` were 94.6% and 103%.
As for `C[C@H]1[C@H](C)CC[C@]2(C(=O)O)CC[C@]3(C)C(=CC[C@@H]4[C@@]5(C)CC[C@H](O)C(C)(C)[C@@H]5CC[C@]43C)[C@H]12`, the values for the Activity in assay [1] and in assay [2] were 102% and 114%, respectively.
Taken in the same sequence, the figures for `COc1ccc(-c2oc3c(CC=C(C)C)c(O[C@@H]4O[C@H](CO)[C@@H](O)[C@H](O)[C@H]4O)cc(O)c3c(=O)c2O[C@@H]2O[C@@H](C)[C@H](O)[C@@H](O)[C@H]2O)cc1` were 90.4% and 104%.
Take `CC1(C)CC[C@]2(C(=O)O)CC[C@]3(C)C(=CC[C@@H]4[C@@]5(C)CC[C@H](O)C(C)(C)[C@@H]5CC[C@]43C)[C@@H]2C1`: the Activity in assay [1] came to 101%; in assay [2], 117%.
Taken in the same sequence, the figures for `Cc1cc(=O)c2c(O)c3c(cc2o1)OC(C)(C)[C@@H](O)C3` were 98.2% and 105%.
Taken in the same sequence, the figures for `O=C(O)c1cc(O)c(O)c(O)c1` were 97.4% and 103%.
On the same counts, the results for `O=c1cc(-c2ccc(O)cc2)oc2cc(O)cc(O)c12` are 97.4% and 84%.
`C=C1CC[C@@H]2[C@H]([C@H]3[C@H]1CC[C@]3(C)O)C2(C)C`: the Activity in assay [1] came out at 106%; in assay [2], 107%.
Taken in the same sequence, the figures for `CC1(C)CC[C@]2(C)CC=C3[C@]4(C)CC[C@H]5C(C)(C)[C@@H](O)CC[C@]5(C)[C@H]4CC[C@@]3(C)[C@@H]2C1` were 106% and 109%.
With `COc1c(O)cc2oc3cc(O)c4c(c3c(=O)c2c1CC=C(C)C)OC(C)(C)CC4`, the Activity in assay [1] is 100%; in assay [2], 106%.
Consider `COc1ccc(-c2cc(=O)c3c(O)cc(O[C@@H]4O[C@H](CO)[C@@H](O)[C@H](O)[C@H]4O)cc3o2)cc1O`, for which the Activity in assay [1] is 108%; in assay [2] it was 112%.
Taken in the same sequence, the figures for `O=c1c(O)c(-c2ccccc2)oc2cc(O)cc(O)c12` were 89.1% and 95%.
Taken in the same sequence, the figures for `O=c1cc(-c2ccc(O)cc2)oc2cc(O)c(O)c(O)c12` were 89% and 92%.
Taken in the same sequence, the figures for `COc1ccc(-c2oc3c(CC=C(C)C)c(O)cc(O)c3c(=O)c2O)cc1` were 97.9% and 94.6%.
Consider `C=C(C)[C@@H]1CC[C@]2(C(=O)O)CC[C@]3(C)[C@H](CC[C@@H]4[C@@]5(C)CC[C@H](O)C(C)(C)[C@@H]5CC[C@]43C)[C@@H]12`, for which the Activity came out at 102% in assay [1] and 112% in assay [2].
On to `COc1ccc(C(=O)O[C@H]2[C@@H]3C=CO[C@@H](O[C@@H]4O[C@H](CO)[C@@H](O)[C@H](O)[C@H]4O)[C@@H]3[C@@]3(CO)O[C@@H]23)cc1OC`, for which the Activity in assay [1] came out at 107%; in assay [2] it was 97.7%.
On the same counts, the results for `CC(C)=CCOc1c2occc2cc2ccc(=O)oc12` are 99% and 102%.
With `CC(C)=CCc1c(O)c(CC=C(C)C)c2oc3c(O)cccc3c(=O)c2c1O`, the Activity in assay [1] came to 92.8%; in assay [2] it was 109%.
On the same counts, the results for `CC1(C)CC[C@]2(C)CC[C@]3(C)C(=CC[C@@H]4[C@@]5(C)[C@@H](O)C[C@H](O)C(C)(C)[C@@H]5[C@H](O)C[C@]43C)[C@@H]2C1` are 98.6% and 99%.
As to `C=C1CC[C@@H]2[C@](C)(CCC[C@]2(C)C(=O)O)[C@H]1CCc1ccoc1`, the Activity in assay [1] is 100%; in assay [2], 92.8%.
Turning to `COc1c2c(cc3oc(C)cc(=O)c13)OC(C(C)(C)O)C2` (configuration not stated), the Activity is 103% in assay [1] and 105% in assay [2].
As for `C[C@H]1[C@@H](O)CC[C@@H]2[C@]1(C)CC[C@H]1[C@@]2(C)CC[C@@]2(C)[C@@H]3CC(C)(C)CC[C@]3(C)CC[C@]12C`, the figures for the Activity in assay [1] and in assay [2] were 109% and 113%, respectively.
As to `O=C(O[C@H]1[C@@H]2C=CO[C@@H](O[C@@H]3O[C@H](CO)[C@@H](O)[C@H](O)[C@H]3O)[C@@H]2[C@@]2(CO)O[C@@H]12)c1ccc(O)c(O)c1`, the figures for the Activity in assay [1] and in assay [2] were 88.3% and 107%, respectively.
For the molecule `C=CCc1cc(OC)c(O)c(OC)c1`, the Activity was 101% in assay [1] and 104% in assay [2].
For the molecule `C[C@@H](C(=O)O)[C@@]1(C)CC[C@H]2[C@@](C)(CC[C@@]3(C)[C@@H]4CC(C)(C)CC[C@]4(C)CC[C@]23C)[C@@H]1CC(=O)O`, the Activity in assay [1] is 108%; in assay [2], 90.9%.
Consider `O=c1cc(-c2ccc(O)c(O)c2)oc2cc(O)cc(O)c12`, for which the Activity in assay [1] worked out at 96.8%; in assay [2] it was 93.6%.
On the same counts, the results for `CC[C@H](CC[C@@H](C)[C@H]1CC[C@H]2[C@@H]3CC=C4C[C@@H](O)CC[C@]4(C)[C@H]3CC[C@]12C)C(C)C` are 105% and 98.8%.
`CC1(C)CC[C@]2(C(=O)O)CC=C3[C@]4(C)CC[C@H]5C(C)(C)[C@@H](O)CC[C@]5(C)[C@H]4CC[C@@]3(C)[C@@H]2C1`: the results for the Activity in assay [1] and in assay [2] were 103% and 113%, respectively.
`O=c1c(O)c(-c2ccc(O)cc2)oc2cc(O)cc(O)c12`: the figures for the Activity in assay [1] and in assay [2] were 104% and 112%, respectively.
On the same counts, the results for `COc1c2c(cc3oc(C)cc(=O)c13)OC(C(C)(C)O[C@H]1O[C@@H](CO)[C@H](O)[C@@H](O)[C@@H]1O)C2` (some centres not stated) are 107% and 108%.
For `O=C(O)[C@H]1O[C@@H](Oc2cc3oc(-c4ccc(O)cc4)cc(=O)c3c(O)c2O)[C@H](O)[C@@H](O)[C@@H]1O`, the figures for the Activity in assay [1] and in assay [2] were 88.8% and 91.5%, respectively.
Taken in the same sequence, the figures for `C/C=C(/C)C(=O)O[C@H]1Cc2c(cc3oc(CO)cc(=O)c3c2O)OC1(C)C` were 102% and 108%.
On to `C=C[C@]1(C)CC[C@@]2(C)C3=CCC[C@](C)(CO)[C@@H]3CC[C@@H]2C1`, for which the figures for the Activity in assay [1] and in assay [2] were 106% and 116%, respectively.
